What is called IC50 is the concentration that gives 50% inhibition. The half-life is the time needed for the level to fall by half in the phase considered.

Data set [1] deals with Haemonchus contortus. Nature of the data set: Anti-helmintic activity against third-stage Haemonchus contortus larvae assessed as inhibition of xL3 motility measured after 72 hrs. Format: functional, organism-based. Conditions: Haemonchus contortus, 72 h; read-out: IC50.
The subject of data set [2] is Haemonchus contortus. The data set can be described thus: Anti-helmintic activity against fourth stage of Haemonchus contortus larvae assessed as reduction in development of L4 stage incubated for 72 hrs followed by reincubation in humidified environment for 4 days. The class given is functional, organism-based.
The nature of data set [3]: Cytotoxicity against human MCF-10A cells assessed as inhibition of cell viability at 50 uM measured after 48 hrs by DAPI staining based analysis. Conditions: read-out: INH.
In a further data set the test system is MCF-10A. Nature of the data set: Cytotoxicity against human MCF-10A cells assessed as inhibition of cell viability measured after 48 hrs by DAPI staining based analysis.
Data set [4] is described as follows: Kinetic solubility of the compound in 0.01M HCl at pH 2.0 incubated for 30 mins by nephelometry. Format: physicochemical. Conditions: read-out: Kinetic_solubility.
The nature of data set [5]: Kinetic solubility of the compound in phosphate buffer pH 6.5 incubated for 30 mins by nephelometry. Format: physicochemical. Conditions: read-out: Kinetic_solubility.
A short description of data set [6]: Half life in human liver microsomes at 0.5 uM measured upto 60 mins in presence of NADPH. The class given is ADME, Microsome.
Data set [7] can be described thus: Half life in mouse liver microsomes at 0.5 uM measured upto 60 mins in presence of NADPH. The class given is ADME, Microsome. (Microsomes from liver hold many membrane-bound enzymes, among them those of drug oxidation.)
Data set [8] in a line: Intrinsic clearence in human liver microsomes at 0.5 uM measured upto 60 mins in presence of NADPH measured per mg protein. The class given is ADME, Microsome. Conditions: read-out: CLH.
Data set [9] can be described thus: Intrinsic clearence in mouse liver microsomes at 0.5 uM measured upto 60 mins in presence of NADPH measured per mg protein. Conditions: read-out: CLH. The class given is ADME, Microsome.

SMILES strings stand for the structures. In brackets after ≈: the same amount, converted by molar mass.

With `COc1ccc(-c2noc([C@@H]3CCCN3C(=O)Nc3ccc(Cl)cc3)n2)cc1`, the half-maximal inhibitory concentration (IC50) in the data set with Haemonchus contortus [1] is 50 µM; in the data set with Haemonchus contortus [2] it was more than 100 µM; in the data set with MCF-10A, more than 50 µM. For the same molecule, the cytotoxicity at 48 h, 50 µM in data set [3] came to 13%.
Take `O=C(Nc1ccc(Cl)cc1)N1CCC[C@H]1c1nc(-c2ccccc2)no1`: the values for the IC50 with Haemonchus contortus [1], in the data set with Haemonchus contortus [2] and in the data set with MCF-10A were 5.3 µM, 21 µM and more than 50 µM, respectively. The cytotoxicity at 48 h, 50 µM in data set [3] was 7.5%. The solubility kinetic at 0.5 h in data set [4] and in [5] was 1.6 µg/mL (≈ 4.34 µM) each time. Further, the half-life at 0.5 µM was determined as 93 min in data set [6] and 20 min in data set [7]. Moreover, the microsomal CLint at 0.5 µM in data set [8] was 19 µL/min/mg; in [9] it was 89 µL/min/mg.
On to `N#Cc1ccc(-c2noc([C@@H]3CCCN3C(=O)Nc3ccc(Cl)cc3)n2)cc1`, for which the results for the concentration for half-maximal inhibition (IC50) in the data set on Haemonchus contortus [1], in the data set with Haemonchus contortus [2] and in the data set with MCF-10A were more than 100 µM, more than 100 µM and more than 50 µM, respectively. Further, in [3], the cytotoxicity at 48 h, 50 µM was found to be 11%.
For the molecule `C[C@](C#N)(COc1cc(C#N)ccc1C(F)(F)F)NC(=O)c1ccc(SC(F)(F)F)cc1` [MONEPANTEL], the IC50 is 0.16 µM with Haemonchus contortus [1], 0.075 µM in the data set on Haemonchus contortus [2] and 26.9 µM in the data set on MCF-10A. Also, the cytotoxicity at 48 h, 50 µM in [3] was 99%.

These data come from ChEMBL document CHEMBL4765257, “Synthesis and structure-activity relationship study of pyrrolidine-oxadiazoles as anthelmintics against Haemonchus contortus” (Eur J Med Chem, 2020).
